Assay results: publication PMC7344389, “Discovery of Anti-Amoebic Inhibitors from Screening the MMV Pandemic Response Box on Balamuthia mandrillaris, Naegleria fowleri, and Acanthamoeba castellanii” (Pathogens, 2020)
Read-outs that look alike come from different tables or passages of the source.

How the values were obtained:
Type in all cases: cell-based
[1] = tested on: Naegleria fowleri trophozoites; test: CellTiter-Glo 2.0 trophocidal assay, N. fowleri; settings: for IC50: 72 h, CTG method, duplicate twofold serial dilutions from 10 µM, mean ± SD, read-out: N. fowleri Mean IC50 (µM) ± SD; for Selectivity Index (A549 IC50/N. fowleri IC50): SI = (IC50 A549)/(IC50 Amoeba)
Protocol: Pathogenic Naegleria fowleri (ATCC 30215), a clinical isolate obtained from a child in Adelaide, Australia, that died of PAM in 1969 was previously purchased from the American Type Culture Collection (ATCC). Trophozoites were routinely grown axenically at 34 °C in Nelson’s complete medium (NCM) in non-vented 75 cm^2 tissue culture flasks (Olympus, El Cajon, CA, USA), until the cells were 80–90% confluent. For sub-culturing, cells were placed on ice to detach the cells from the culture flasks. The cells were collected by centrifugation at 4000 rpm at 4 °C. Complete NCM media is produced by the addition of 10% FBS and 125 μg of penicillin/streptomycin antibiotics.
The trophocidal activity of compounds was assessed using the CellTiter-Glo 2.0 luminescent viability assay (Promega, Madison, WI, USA), as previously described. Trophozoites were routinely cultured as described above and only logarithmic trophozoites were used. In brief, B. mandrillaris, N. fowleri, or A. castellanii trophozoites cultured in their corresponding media were seeded at 16,000, 3000, or 1440 cells/well into white 96-well plates (Costar 3370), respectively. Initially all compounds were assessed in a single-point drug screen at 10 and 1 μM, as previously described. […] Control wells were supplemented with 0.1% (10 μM screening plate) or 0.01% (1 μM screening plate) DMSO, as the negative controls, or 12.5 μM of chlorhexidine, as the positive control. Following the single-point assays at 10 and 1 µM, we prioritized compounds for progression to IC50 determinations. […] We used this process to reduce the number of potential false positives. Drugs were cherry-picked, dissolved in the media specific to each parasite, and assessed in twofold serial dilutions from the highest concentration of 10 μM. All assays were incubated at each of the parasites’ representative growth temperatures, described above, for 72 h. At the 72 h time point, 25 μL of CellTiter-Glo 2.0 reagent was added to all wells of the 96-well plates using the Biomek NX^P automated workstation. The plates were protected from light and contents were mixed using an orbital shaker at 300 rpm at room temperature for 2 min to induce cell lysis. After shaking, the plates were equilibrated at room temperature for 10 min to stabilize the luminescent signal. The adenosine triphosphate (ATP) luminescent signal (relative light units; RLUs) was measured at 490 nm with a SpectraMax I3X plate reader (Molecular Devices, Sunnyvale, CA, USA). Drug inhibitory concentration (IC50) curves were generated using total ATP RLUs, where controls were calculated as the average of replicates using the Levenberg–Marquardt algorithm, using DMSO as the normalization control, as defined in Collaborative Drug Discovery Inc. (CDD) Vault (Burlingame, CA, USA). Values reported are from a minimum of two biological replicates with standard deviations.

[2] = tested on: A549 human lung carcinoma cells; test: MTS cytotoxicity counter-screen of reconfirmed hits
Protocol: Cytotoxicity of the reconfirmed hits was determined by using the CellTiter 96® AQueous One Solution Cell Proliferation Assay (Promega, Madison, WI) on A549 human lung carcinoma cells. A549 cells were seeded at a concentration of 1.6 × 10^4 cells/mL in 96-well tissue culture plates (Corning, NY, USA), in the presence of serially diluted active hits against B. mandrillaris, N. fowleri, or A. castellanii. Positive control wells contained cells and media; negative control wells contained 0.1% DMSO. Cells were grown in F12K medium supplemented with 10% FBS and 1% gentamycin (all supplied from Fisher Scientific, Atlanta, GA, USA). The inhibitor concentration started at 10 µM and was diluted in doubling dilutions to assess cytotoxicity in comparison to the respective free-living amoeba. Total volume of each well was 100 µL and plates were incubated at 37 °C, 5% CO2 for 72 h. Next, 4 h before the time-point, 20 µL of MTS (Promega, Madison, WI, USA) was added to each well. Inhibition of A549 growth was assessed at the 72 h time-point measuring the optical density (OD) values at 490 nm using a SpectraMax I3X plate reader (Molecular Devices, Sunnyvale, CA, USA). Curve fitting using non-linear regression was carried out using the average of replicates and the Levenberg–Marquardt algorithm, using DMSO as the normalization control, as defined in CDD Vault (Burlingame, CA, USA).

[3] = tested on: Acanthamoeba castellanii trophozoites; test: CellTiter-Glo 2.0 trophocidal assay, A. castellanii; settings: for IC50: CTG method, 72 h, duplicate twofold serial dilutions from 10 µM, mean ± SD; for Selectivity Index (A549 IC50/A. castellanii IC50): SI = (IC50 A549)/(IC50 Amoeba)
Protocol: This isolate was also purchased from ATCC. Trophozoites were routinely grown axenically at 27 °C in Protease Peptone-Glucose Media (PG) in non-vented 75 cm^2 tissue culture flasks (Olympus, El Cajon, CA, USA), until the cells were 80–90% confluent. For sub-culturing, cells were mechanically harvested to detach the cells from the culture flasks. The cells were collected by centrifugation at 4000 rpm at 4 °C.
The trophocidal activity of compounds was assessed using the CellTiter-Glo 2.0 luminescent viability assay (Promega, Madison, WI, USA), as previously described. Trophozoites were routinely cultured as described above and only logarithmic trophozoites were used. […] Initially all compounds were assessed in a single-point drug screen at 10 and 1 μM, as previously described. […] We used this process to reduce the number of potential false positives. Drugs were cherry-picked, dissolved in the media specific to each parasite, and assessed in twofold serial dilutions from the highest concentration of 10 μM. All assays were incubated at each of the parasites’ representative growth temperatures, described above, for 72 h. At the 72 h time point, 25 μL of CellTiter-Glo 2.0 reagent was added to all wells of the 96-well plates using the Biomek NX^P automated workstation. The plates were protected from light and contents were mixed using an orbital shaker at 300 rpm at room temperature for 2 min to induce cell lysis. After shaking, the plates were equilibrated at room temperature for 10 min to stabilize the luminescent signal. The adenosine triphosphate (ATP) luminescent signal (relative light units; RLUs) was measured at 490 nm with a SpectraMax I3X plate reader (Molecular Devices, Sunnyvale, CA, USA). Drug inhibitory concentration (IC50) curves were generated using total ATP RLUs, where controls were calculated as the average of replicates using the Levenberg–Marquardt algorithm, using DMSO as the normalization control, as defined in Collaborative Drug Discovery Inc. (CDD) Vault (Burlingame, CA, USA). Values reported are from a minimum of two biological replicates with standard deviations.

[4] = Homo sapiens, A549, MTS assay, 72 h, doubling dilutions from 10 µM, read-out: A549 Mean IC50
[5] = MTS assay, 72 h, doubling dilutions from 10 µM, read-out: A549 Mean IC50

Compound	IC50 ([1]; Naegleria fowleri) [µM]	Selectivity Index (A549 IC50/N. fowleri IC50) [1]	IC50 [2, 4] [µM]	IC50 [2, 5] [µM]	IC50 [1] [µM]	other results
O=c1cc(NCCCN[C@@H]2CCOc3c(Br)cc(Br)cc32)[nH]c2ccsc12 [MMV1578884]	0.08 ± 0.02	≥128	> 10			Selectivity Index (A549 IC50/N. fowleri IC50) ([1]; listed as CRS-3123): ≥ 10; potency against N. fowleri, in words ([1]; dose-response, CTG): nanomolar potency
O=C(O)C(F)(F)F [Trifluoroacetic acid]						IC50 [3]: 1.97 ± 1 µM; IC50 ([3]; listed as trifluoroacetic acid): ≤ 10 µM; Selectivity Index (A549 IC50/A. castellanii IC50) [3]: ≥5.10; IC50 ([2]; Homo sapiens, A549, 72 h, read-out: A549 Mean IC50 (µM)): > 10 µM
Nc1nc(N)c2c(Sc3ccccc3)cccc2n1 [MMV021759]				> 10		
O=C(Nc1cccc(C2=NCCN2)c1)c1ccc(-c2ccc(C(=O)Nc3cccc(C4=NCCN4)c3)cc2)cc1 [MMV1580853]				> 10	4.95 ± 2.55	
COc1ccc2sc3c(c2c1)NC(C)CNC3=O (centres unmarked) [MMV1782115]				5.8	9.35 ± 0.35	
C=C[C@]1(C)C[C@@H](OC(=O)CS[C@@H]2C[C@H]3CC[C@@H](C2)N3C)[C@]2(C)[C@H](C)CC[C@]3(CCC(=O)[C@H]32)[C@@H](C)[C@@H]1O [Retapamulin]		≥8.97	> 10		1.12 ± 0.28	IC50 ([1]; listed as repatamulin): ≤ 10 µM
Cc1cc(C2CCCCC2)n(O)c(=O)c1 [Ciclopirox]	7.5 ± 1.4	≥1.33	> 10			
CCC(C)NCC(O)Cn1c2ccc(Cl)cc2c2cc(Cl)ccc21 (centres unmarked) [MMV1578570]				> 10	6.4 ± 0.9	
CCCCC(CC)CNC(=N)NC(=N)NCCCCCCNC(=N)NC(=N)NCC(CC)CCCC (centres unmarked) [Alexidine]			2.1			IC50 [3]: 2.4 ± 1.56 µM; IC50 ([3]; listed as alexidine): ≤ 10 µM; Selectivity Index (A549 IC50/A. castellanii IC50) [3]: 0.88
CN(C)[C@@H]1C(O)=C(C(N)=O)C(=O)[C@@]2(O)C(O)=C3C(=O)c4c(O)c(NC(=O)CN5CCCC5)cc(F)c4C[C@H]3C[C@@H]12 [Eravacycline]	2.75 ± 0.35	≥3.64	> 10			
NC[C@H]1OB(O)c2c(OCCCO)cccc21 [Epetraborole]	2.6 ± 0.3	≥3.85	> 10			
Nc1nc(Nc2ccc3nc(-c4ccc(F)cc4)cc(N)c3c2)cc(-c2ccccc2)n1 [MMV1593541]				2.3	5.3 ± 0.6	
OCCC#Cc1nc(-c2ccc(F)cc2)c(-c2ccncc2)n1CCCc1ccccc1 [RWJ-67657]	5.35 ± 0.35	≥1.87	> 10			
